Measurements as given in US20220249447A1, “CF3-, OCF3-, SCF3-, and SF5-Containing Antibacterial Agents” (Purdue Research Foundation, priority 2019, published 2022).
Values after ≈ are worked out from the molar mass of the structure shown.

Columns and labels:
[1] = tested on: MRSA ATCC 33592; assay: MIC, broth microdilution, MRSA ATCC 33592; assay type: cell-based, methicillin-resistant S. aureus; settings: Staphylococcus aureus
Method: All MRSA isolates were acquired from BEI Resources. The remaining bacteria were purchased from the American Type Culture Collection (ATCC).
(§1) Bacteria were cultured in cation-adjusted Mueller Hinton Broth (for strains in Tables 1-3) or Brain Heart Infusion broth (for Enterococcus faecium) or Tryptic Soy Broth (all other bacteria) in a 96-well plate at 37° C. for at least 20 hours. The MIC was classified as the lowest concentration where no visual growth of bacteria was observed. The minimum bactericidal concentration (MBC) was tested by spotting 4 μL from wells with no growth onto Tryptic Soy Agar (TSA) plates. Plates were incubated at 37° C. for at least 18 hours before recording the MBC.

[2] = tested on: S. aureus; assay: MIC, broth microdilution, S. aureus; assay type: cell-based; settings: Staphylococcus aureus
Method: as §1

[3] = tested on: Neisseria gonorrhea strain 181; assay: MIC against Neisseria gonorrhea strain 181; assay type: cell-based
Method: as §1

Structure (SMILES) | MIC [1] [µg/mL] | MIC [2] [µg/mL] | MIC [3] [µg/mL] | MIC ([1]; 20 h) [µg/mL] | MIC ([2]; 20 h) [µg/mL]
O=C(Nc1nnc(-c2cccs2)o1)c1ccc(C(F)(F)F)cn1 [HSGN-172, N-(5-(thiophen-2-yl)-1,3,4-oxadiazol-2-yl)-5-(trifluoromethyl)picolinamide] | 32 (≈ 94 µM) | 64 (≈ 188 µM) |  |  | 
O=C(Nc1nnc(-c2cccs2)o1)c1ccc(SC(F)F)cc1 [HSGN-250, 4-((difluoromethyl)thio)-N-(5-(thiophen-2-yl)-1,3,4-oxadiazol-2-yl)benzamide] | 2 (≈ 5.66 µM) | 4 (≈ 11.3 µM) |  |  | 
O=C(Nc1nnn(Cc2ccccc2)n1)c1ccc(S(F)(F)(F)(F)F)cc1 [HSGN-2136, N-(2-benzyl-2H-tetrazol-5-yl)-4-(pentafluoro-λ^6-sulfaneyl)benzamide] | > 128 | > 128 |  |  | 
N#Cc1cccc(-c2nnc(NC(=O)c3ccc(SC(F)(F)F)cc3)o2)c1 [HSGN-283, N-(5-(3-cyanophenyl)-1,3,4-oxadiazol-2-yl)-4-((trifluoromethyl)thio)benzamide] | 0.0625 (≈ 0.16 µM) | 0.0625 (≈ 0.16 µM) |  |  | 
O=C(Nc1nnc(-c2cccs2)o1)c1ccc(C(F)(F)F)nc1 [HSGN-171, N-(5-(thiophen-2-yl)-1,3,4-oxadiazol-2-yl)-6-(trifluoromethyl)nicotinamide] | 8 (≈ 23.5 µM) | 16 (≈ 47 µM) |  |  | 
COc1ccc(Cl)cc1-c1nnc(NC(=O)c2ccc(SC(F)(F)F)cc2)o1 [HSGN-252, N-(5-(5-chloro-2-methoxyphenyl)-1,3,4-oxadiazol-2-yl)-4-((trifluoromethyl)thio)benzamide] | 1 (≈ 2.33 µM) | 2 (≈ 4.65 µM) |  |  | 
O=C(Nc1nnc(-c2cccnc2)o1)c1ccc(SC(F)(F)F)cc1 [HSGN-206, N-(5-(pyridin-3-yl)-1,3,4-oxadiazol-2-yl)-4-((trifluoromethyl)thio)benzamide] | 32 (≈ 87.4 µM) | 32 (≈ 87.4 µM) |  |  | 
O=C(Nc1nnc(-c2cccs2)o1)c1ccc(OC(F)F)cc1 [HSGN-143, 4-(difluoromethoxy)-N-(5-(thiophen-2-yl)-1,3,4-oxadiazol-2-yl)benzamide] | 32 (≈ 94.9 µM) | 32 (≈ 94.9 µM) |  |  | 
O=C(Nc1nnc(-c2cccs2)o1)c1ncc(C(F)(F)F)s1 [HSGN-168, N-(5-(thiophen-2-yl)-1,3,4-oxadiazol-2-yl)-5-(trifluoromethyl)thiazole-2-carboxamide] | 8 (≈ 23.1 µM) | 16 (≈ 46.2 µM) |  |  | 
O=C(Nc1nnc(C(F)(F)F)o1)c1ccc(S(F)(F)(F)(F)F)cc1 [HSGN-2141, 4-(pentafluoro-λ^6-sulfaneyl)-N-(5-(trifluoromethyl)-1,3,4-oxadiazol-2-yl)benzamide] | 32 (≈ 83.5 µM) | 32 (≈ 83.5 µM) |  |  | 
O=C(Nc1nnc(-c2cccs2)o1)c1ccc(C(F)(F)F)o1 [HSGN-169, N-(5-(thiophen-2-yl)-1,3,4-oxadiazol-2-yl)-5-(trifluoromethyl)furan-2-carboxamide] | > 64 | > 64 |  |  | 
O=C(Nc1noc(-c2ccc(C(F)(F)F)cc2)n1)c1ccc(SC(F)(F)F)cc1 [HSGN-257, N-(5-(4-(trifluoromethyl)phenyl)-1,2,4-oxadiazol-3-yl)-4-((trifluoromethyl)thio)benzamide] | > 64 | > 64 |  |  | 
CC[C@H]1OC(=O)[C@H](C)[C@@H](O[C@H]2C[C@@](C)(OC)[C@@H](O)[C@H](C)O2)[C@H](C)[C@@H](O[C@@H]2O[C@H](C)C[C@H](N(C)C)[C@H]2O)[C@](C)(O)C[C@@H](C)CN(C)[C@H](C)[C@@H](O)[C@]1(C)O [Azithromycin, reference compound] |  |  | 256 (≈ 342 µM) |  | 
CSc1ccc(C(=O)Nc2nnc(-c3cccs3)o2)cc1 [HSGN-251, 4-(methylthio)-N-(5-(thiophen-2-yl)-1,3,4-oxadiazol-2-yl)benzamide] | 8 (≈ 25.2 µM) | 16 (≈ 50.4 µM) |  |  | 
O=C(Nc1nnc(-c2cccs2)o1)c1cccc(C(F)(F)F)n1 [HSGN-184, N-(5-(thiophen-2-yl)-1,3,4-oxadiazol-2-yl)-6-(trifluoromethyl)picolinamide] | 16 (≈ 47 µM) | 16 (≈ 47 µM) |  |  | 
O=C(Nc1nnc(-c2ccccc2)o1)c1ccc(SC(F)(F)F)cc1 [HSGN-280, N-(5-phenyl-1,3,4-oxadiazol-2-yl)-4-((trifluoromethyl)thio)benzamide] | 1 (≈ 2.74 µM) | 1 (≈ 2.74 µM) |  |  | 
Cc1nnc(NC(=O)c2ccc(S(F)(F)(F)(F)F)cc2)o1 [HSGN-2140, N-(5-methyl-1,3,4-oxadiazol-2-yl)-4-(pentafluoro-λ^6-sulfaneyl)benzamide] | 1 (≈ 3.04 µM) | 1 (≈ 3.04 µM) |  |  | 
FC(F)(F)Sc1ccc(-n2cc(-c3nnc(-c4cccc(Cl)c4)o3)nn2)cc1 [HSGN-260] |  |  |  | > 64 | > 64
O=S(=O)(Nc1nnc(-c2cccc(Cl)c2)o1)c1ccc(S(F)(F)(F)(F)F)cc1 [HSGN-255, N-(5-(3-chlorophenyl)-1,3,4-oxadiazol-2-yl)-4-(pentafluoro-δ6-sulfaneyl)benzenesulfonamide] | > 64 | > 64 |  |  | 

Structure (SMILES) | MIC [1] [µg/mL] | MIC [2] [µg/mL] | MIC [3] [µg/mL] | MIC ([1]; 20 h) [µg/mL] | MIC ([2]; 20 h) [µg/mL]
O=C(Nc1nnc(-c2ccc(Cl)cc2)o1)c1ccc(SC(F)(F)F)cc1 [HSGN-282, N-(5-(4-chlorophenyl)-1,3,4-oxadiazol-2-yl)-4-((trifluoromethyl)thio)benzamide] | 0.0625 (≈ 0.156 µM) | 0.0625 (≈ 0.156 µM) |  |  | 
CCCc1nnc(NC(=O)c2ccc(S(F)(F)(F)(F)F)cc2)o1 [HSGN-2142, 4-(pentafluoro-λ^6-sulfaneyl)-N-(5-propyl-1,3,4-oxadiazol-2-yl)benzamide] | 0.5 (≈ 1.4 µM) | 1 (≈ 2.8 µM) |  |  | 
O=C(Nc1nnc(-c2cccc(Cl)c2)o1)c1cccc(SC(F)(F)F)c1 [HSGN-2111, N-(5-(3-chlorophenyl)-1,3,4-oxadiazol-2-yl)-3-((trifluoromethyl)thio)benzamide] | 1 (≈ 2.5 µM) | 1 (≈ 2.5 µM) |  |  | 
O=C(Nc1nnc(-c2ccc(C(F)(F)F)cc2)o1)c1ccc(OC(F)(F)F)cc1 [HSGN-220, 4-(trifluoromethoxy)-N-(5-(4-(trifluoromethyl)phenyl)-1,3,4-oxadiazol-2-yl)benzamide] | 0.25 (≈ 0.599 µM) | 0.125 (≈ 0.3 µM) |  |  | 
O=C(Nc1nnc(-c2cccc(Cl)c2)o1)c1ccc(OC(F)(F)F)c([N+](=O)[O-])c1 [HSGN-262, N-(5-(3-chlorophenyl)-1,3,4-oxadiazol-2-yl)-3-nitro-4-(trifluoromethoxy)benzamide] | 16 (≈ 37.3 µM) | 16 (≈ 37.3 µM) |  |  | 
Cc1ccc(-c2nnc(NC(=O)c3ccc(SC(F)(F)F)cc3)o2)s1 [HSGN-258, N-(5-(5-methylthiophen-2-yl)-1,3,4-oxadiazol-2-yl)-4-((trifluoromethyl)thio)benzamide] | 2 (≈ 5.19 µM) | 2 (≈ 5.19 µM) |  |  | 
O=C(Nc1nnc(-c2ccc(F)cc2)o1)c1ccc(SC(F)(F)F)cc1 [HSGN-281, N-(5-(4-fluorophenyl)-1,3,4-oxadiazol-2-yl)-4-((trifluoromethyl)thio)benzamide] | 0.0625 (≈ 0.163 µM) | 0.0625 (≈ 0.163 µM) |  |  | 
O=C(Nc1nnc(-c2ccccc2F)o1)c1ccc(SC(F)(F)F)cc1 [HSGN-2114, N-(5-(2-fluorophenyl)-1,3,4-oxadiazol-2-yl)-4-((trifluoromethyl)thio)benzamide] | 0.5 (≈ 1.3 µM) | 0.5 (≈ 1.3 µM) |  |  | 
O=C(Nc1nnc(-c2cccs2)o1)c1cnc(C(F)(F)F)nc1 [HSGN-190, N-(5-(thiophen-2-yl)-1,3,4-oxadiazol-2-yl)-2-(trifluoromethyl)pyrimidine-5-carboxamide] | 32 (≈ 93.8 µM) | 32 (≈ 93.8 µM) |  |  | 
O=C(Nc1cnn(-c2ccccc2)c1)c1ccc(S(F)(F)(F)(F)F)cc1 [HSGN-2135, 4-(pentafluoro-λ^6-sulfaneyl)-N-(1-phenyl-1H-pyrazol-4-yl)benzamide] | > 128 | > 128 |  |  | 
COc1ccc(-c2nnc(NC(=O)c3ccc(SC(F)(F)F)cc3)o2)cc1 [HSGN-207, N-(5-(4-methoxyphenyl)-1,3,4-oxadiazol-2-yl)-4-((trifluoromethyl)thio)benzamide] | 8 (≈ 20.2 µM) | 16 (≈ 40.5 µM) |  |  | 
O=C(Nc1nnc(C2CCCC2)o1)c1ccc(S(F)(F)(F)(F)F)cc1 [HSGN-2143, N-(5-cyclopentyl-1,3,4-oxadiazol-2-yl)-4-(pentafluoro-16-sulfaneyl)benzamide] | 1 (≈ 2.61 µM) | 2 (≈ 5.22 µM) |  |  | 
O=S(=O)(Nc1nnc(-c2cccc(Cl)c2)o1)c1ccc(SC(F)(F)F)cc1 [HSGN-256, N-(5-(3-chlorophenyl)-1,3,4-oxadiazol-2-yl)-4-((trifluoromethyl)thio)benzenesulfonamide] | > 64 | > 64 |  |  | 
O=C(Nc1nnc(-c2cccc(Cl)c2)o1)c1cccc(S(F)(F)(F)(F)F)c1 [HSGN-2112, N-(5-(3-chlorophenyl)-1,3,4-oxadiazol-2-yl)-3-(pentafluoro-λ^6-sulfaneyl)benzamide] | 0.5 (≈ 1.17 µM) | 0.5 (≈ 1.17 µM) |  |  | 
COc1cc(Cl)cc(-c2nnc(NC(=O)c3ccc(SC(F)(F)F)cc3)o2)c1 [HSGN-266, N-(5-(3-chloro-5-methoxyphenyl)-1,3,4-oxadiazol-2-yl)-4-((trifluoromethyl)thio)benzamide] | 0.5 (≈ 1.16 µM) | 0.5 (≈ 1.16 µM) |  |  | 
O=C(Nc1nnc(-c2ccc(Cl)s2)o1)c1ccc(S(F)(F)(F)(F)F)cc1 [HSGN-2113, N-(5-(5-chlorothiophen-2-yl)-1,3,4-oxadiazol-2-yl)-4-(pentafluoro-λ^6-sulfaneyl)benzamide] | 0.25 (≈ 0.579 µM) | 0.25 (≈ 0.579 µM) |  |  | 
O=C(Nc1nnc(-c2cccs2)o1)c1cc(C(F)(F)F)n[nH]1 [HSGN-183, N-(5-(thiophen-2-yl)-1,3,4-oxadiazol-2-yl)-3-(trifluoromethyl)-1H-pyrazole-5-carboxamide] | > 64 | > 64 |  |  | 
O=C(Nc1nnc(-c2ccccc2Cl)o1)c1ccc(SC(F)(F)F)cc1 [HSGN-2115, N-(5-(2-chlorophenyl)-1,3,4-oxadiazol-2-yl)-4-((trifluoromethyl)thio)benzamide] | 0.5 (≈ 1.25 µM) | 0.5 (≈ 1.25 µM) |  |  | 
O=C(Nc1nnc(-c2cccs2)o1)c1ccc(C(F)(F)F)s1 [HSGN-170] | 2 (≈ 5.79 µM) | 4 (≈ 11.6 µM) |  |  | 
